Values after ≈ are worked out from the molar mass of the structure shown.
Columns and labels:
[1] = test system: Mycobacterium tuberculosis; test: Antimycobacterial activity against Mycobacterium tuberculosis H37Rv ATCC 27294 incubated for 5 days by microplate alamar blue assay; assay type: functional; details: H37Rv ATCC 27294, 120 h
[2] = Cytotoxicity against African green monkey Vero cells assessed as reduction in cell viability after 72 hrs by MTT assay; assay type: cell-based; details: chlorocebus sabaeus
[3] = Selectivity index, ratio of CC50 for African green monkey Vero cells to MIC for Mycobacterium tuberculosis H37Rv ATCC 27294; assay type: toxicity, cell-based; details: read-out: Selectivity Index

Question: With `Cc1c(C(=O)CSCCNC(=O)c2cccs2)[n+]([O-])c2ccccc2[n+]1[O-]` as the compound, how does the MIC [1] read?
Answer: 6.25 µg/mL (≈ 15.5 µM)

Question: And the CC50 at 72 h [2]?
Answer: > 100 µg/mL

Question: What about the selectivity ratio [3] of the same compound?
Answer: > 16

Question: What does the source list for `Cc1c(C(=O)CSc2nc[nH]n2)[n+]([O-])c2ccccc2[n+]1[O-]`?
Answer: MIC [1]: 0.39 µg/mL (≈ 1.23 µM); CC50 at 72 h [2]: 50 µg/mL (≈ 158 µM); selectivity ratio [3]: 128

Question: With `CC(=O)NCCSCC(=O)c1c(C)[n+]([O-])c2ccccc2[n+]1[O-]` as the compound, how does the MIC [1] read?
Answer: 50 µg/mL (≈ 149 µM)

Question: Which results are given for `Cc1c(C(=O)CSc2ccc(F)cc2)[n+]([O-])c2ccccc2[n+]1[O-]`?
Answer: MIC [1]: 0.39 µg/mL (≈ 1.13 µM); CC50 at 72 h [2]: 50 µg/mL (≈ 145 µM); selectivity ratio [3]: 128

Question: For `Cc1c(C(=O)CN(C)C2CCCCC2)[n+]([O-])c2ccccc2[n+]1[O-]`, which MIC [1] is on record?
Answer: 50 µg/mL (≈ 152 µM)

Question: For `Cc1ccc(SCC(=O)c2c(C)[n+]([O-])c3ccccc3[n+]2[O-])cc1`, which MIC [1] is on record?
Answer: 0.78 µg/mL (≈ 2.29 µM)

Question: What about the CC50 at 72 h [2] of the same compound?
Answer: 50 µg/mL (≈ 147 µM)

Question: What about the selectivity ratio [3] of the same compound?
Answer: 64

Question: Which MIC [1] does the source give for `Cc1c(C(=O)CSCCNC(=O)C2CCCCC2)[n+]([O-])c2ccccc2[n+]1[O-]` here?
Answer: 12.5 µg/mL (≈ 31 µM)

Question: What does the source list for `Cc1c(C(=O)CSc2nc3ccccc3o2)[n+]([O-])c2ccccc2[n+]1[O-]`?
Answer: MIC [1]: 3.13 µg/mL (≈ 8.52 µM); CC50 at 72 h [2]: 50 µg/mL (≈ 136 µM); selectivity ratio [3]: 16

Question: Which MIC [1] does the source give for `COc1ccc(SCC(=O)c2c(C)[n+]([O-])c3ccccc3[n+]2[O-])cc1` here?
Answer: 0.78 µg/mL (≈ 2.19 µM)

Question: And the CC50 at 72 h [2]?
Answer: 50 µg/mL (≈ 140 µM)

Question: And the selectivity ratio [3]?
Answer: 64

Question: Which results are given for `Cc1c(C(=O)CN(C)c2ccc(F)cc2)[n+]([O-])c2ccccc2[n+]1[O-]`?
Answer: MIC [1]: 6.25 µg/mL (≈ 18.3 µM); CC50 at 72 h [2]: > 100 µg/mL; selectivity ratio [3]: > 16

Question: Which results are given for `Cc1c(C(=O)CSCCNC(=O)c2ccc3ccccc3c2)[n+]([O-])c2ccccc2[n+]1[O-]`?
Answer: MIC [1]: 6.25 µg/mL (≈ 14 µM); CC50 at 72 h [2]: > 100 µg/mL; selectivity ratio [3]: > 16

Question: Which MIC [1] does the source give for `Cc1c(C(=O)CSCCNC(=O)c2ccncc2)[n+]([O-])c2ccccc2[n+]1[O-]` here?
Answer: 6.25 µg/mL (≈ 15.7 µM)

Question: What about the CC50 at 72 h [2] of the same compound?
Answer: 50 µg/mL (≈ 125 µM)

Question: Which MIC [1] does the source give for `Cc1c(C(=O)CSCCO)[n+]([O-])c2ccccc2[n+]1[O-]` here?
Answer: 50 µg/mL (≈ 170 µM)

Question: With `Cc1c(C(=O)CSCCN)[n+]([O-])c2ccccc2[n+]1[O-]` as the compound, how does the MIC [1] read?
Answer: 50 µg/mL (≈ 170 µM)

Question: For `Cc1c(C(=O)CNc2nc3ccccc3[nH]2)[n+]([O-])c2ccccc2[n+]1[O-]`, which MIC [1] is on record?
Answer: 12.5 µg/mL (≈ 35.8 µM)

Question: With `Cc1c(C(=O)CSc2nc3ccccc3s2)[n+]([O-])c2ccccc2[n+]1[O-]` as the compound, how does the MIC [1] read?
Answer: 1.56 µg/mL (≈ 4.07 µM)

Question: And the CC50 at 72 h [2]?
Answer: 50 µg/mL (≈ 130 µM)

Question: And the selectivity ratio [3]?
Answer: 32

Question: For `Cc1c(C(=O)CSCCNC(=O)c2ccc(F)cc2)[n+]([O-])c2ccccc2[n+]1[O-]`, which MIC [1] is on record?
Answer: 1.56 µg/mL (≈ 3.76 µM)

Question: And the CC50 at 72 h [2]?
Answer: > 100 µg/mL

Question: And the selectivity ratio [3]?
Answer: > 128

Question: What does the source list for `Cc1c(C(=O)CSc2nccs2)[n+]([O-])c2ccccc2[n+]1[O-]`?
Answer: MIC [1]: 3.13 µg/mL (≈ 9.39 µM); CC50 at 72 h [2]: 50 µg/mL (≈ 150 µM); selectivity ratio [3]: 16

Question: For `Cc1ccc(N(C)CC(=O)c2c(C)[n+]([O-])c3ccccc3[n+]2[O-])cc1`, which MIC [1] is on record?
Answer: 25 µg/mL (≈ 74.1 µM)

Question: What does the source list for `Cc1c(C(=O)CSc2ccccc2)[n+]([O-])c2ccccc2[n+]1[O-]`?
Answer: MIC [1]: 1.56 µg/mL (≈ 4.78 µM); CC50 at 72 h [2]: 50 µg/mL (≈ 153 µM); selectivity ratio [3]: 32

Question: For `COc1ccc(C(=O)NCCSCC(=O)c2c(C)[n+]([O-])c3ccccc3[n+]2[O-])cc1`, which MIC [1] is on record?
Answer: 3.13 µg/mL (≈ 7.32 µM)

Question: And the CC50 at 72 h [2]?
Answer: > 100 µg/mL

Question: What about the selectivity ratio [3] of the same compound?
Answer: > 32

Question: With `CCN(CC)CC(=O)c1c(C)[n+]([O-])c2ccccc2[n+]1[O-]` as the compound, how does the MIC [1] read?
Answer: 50 µg/mL (≈ 173 µM)

Question: Which MIC [1] does the source give for `Cc1c(C(=O)CN2CCN(C)CC2)[n+]([O-])c2ccccc2[n+]1[O-]` here?
Answer: 50 µg/mL (≈ 158 µM)

Question: With `Cc1c(C(=O)CNc2nccs2)[n+]([O-])c2ccccc2[n+]1[O-]` as the compound, how does the MIC [1] read?
Answer: 50 µg/mL (≈ 158 µM)

Question: With `Cc1c(C(=O)CSCCNC(=O)[C@@H](N)Cc2ccc(O)cc2)[n+]([O-])c2ccccc2[n+]1[O-]` as the compound, how does the MIC [1] read?
Answer: 25 µg/mL (≈ 54.8 µM)

Question: Which MIC [1] does the source give for `Cc1c(C(=O)CN(C)c2ccccc2)[n+]([O-])c2ccccc2[n+]1[O-]` here?
Answer: 25 µg/mL (≈ 77.3 µM)

Question: For `Cc1c(C(=O)CSc2nc3ccccc3[nH]2)[n+]([O-])c2ccccc2[n+]1[O-]`, which MIC [1] is on record?
Answer: 6.25 µg/mL (≈ 17.1 µM)

Question: And the CC50 at 72 h [2]?
Answer: 100 µg/mL (≈ 273 µM)

Question: What about the selectivity ratio [3] of the same compound?
Answer: 16

Question: Which results are given for `Cc1c(C(=O)CSCCNC(=O)[C@@H](N)Cc2c[nH]c3ccccc23)[n+]([O-])c2ccccc2[n+]1[O-]`?
Answer: MIC [1]: 6.25 µg/mL (≈ 13 µM); CC50 at 72 h [2]: > 100 µg/mL; selectivity ratio [3]: > 16

Question: Which MIC [1] does the source give for `Cc1c(C(=O)CSCCNC(=O)c2ccccc2)[n+]([O-])c2ccccc2[n+]1[O-]` here?
Answer: 6.25 µg/mL (≈ 15.7 µM)

Question: And the CC50 at 72 h [2]?
Answer: > 100 µg/mL

Question: What about the selectivity ratio [3] of the same compound?
Answer: > 16

Question: For `Cc1c(C(=O)CN2CCCCC2)[n+]([O-])c2ccccc2[n+]1[O-]`, which MIC [1] is on record?
Answer: 25 µg/mL (≈ 83 µM)

Question: Which MIC [1] does the source give for `Cc1c(C(=O)CSCCNC(=O)[C@@H](N)C(C)C)[n+]([O-])c2ccccc2[n+]1[O-]` here?
Answer: 25 µg/mL (≈ 63.7 µM)

Question: For `Cc1c(C(=O)CN(C)Cc2ccccc2)[n+]([O-])c2ccccc2[n+]1[O-]`, which MIC [1] is on record?
Answer: 50 µg/mL (≈ 148 µM)

Question: Which MIC [1] does the source give for `COc1cc(C(=O)NCCSCC(=O)c2c(C)[n+]([O-])c3ccccc3[n+]2[O-])cc(OC)c1OC` here?
Answer: 25 µg/mL (≈ 51.3 µM)

Question: Which MIC [1] does the source give for `NNC(=O)c1ccncc1` [ISONIAZID] here?
Answer: 0.2 µg/mL (≈ 1.46 µM)

— ChEMBL document CHEMBL3826937, “Synthesis, 3D-QSAR analysis and biological evaluation of quinoxaline 1,4-di-N-oxide derivatives as antituberculosis agents” (Bioorg Med Chem Lett, 2016)
